{"source": "PubChem BioAssay AID1996", "data": [{"conditions": "buffer; pH 7.4; 200.0 µM", "units": {"solubility kinetic": "µg/mL"}, "values": [{"compound": "CN1CCN(C(=O)c2ccc(F)c(F)c2)CC1", "solubility kinetic": "> 36"}, {"compound": "CSc1ncc(C(=O)Nc2ccccc2C)c(C)n1", "solubility kinetic": "> 41"}, {"compound": "COc1ccc(CNc2nccs2)cc1", "solubility kinetic": 19.5}, {"compound": "Fc1ccc(N2CCN(c3cnc4ccccc4n3)CC2)cc1", "solubility kinetic": 1}, {"compound": "Cc1nc(Cl)c(Cl)n1CCOc1ccccc1", "solubility kinetic": "> 40.7"}, {"compound": "NS(=O)(=O)c1ccc(N2CCN(S(=O)(=O)Cc3ccccc3)CC2)nc1", "solubility kinetic": 4.1}, {"compound": "COc1cccc(C(=O)CC(C#N)c2ccc(F)cc2)c1", "note": "(centres undefined)", "solubility kinetic": 16}, {"compound": "Cc1ccc(S(=O)(=O)N2CCOCC2)s1", "solubility kinetic": "> 37.1"}, {"compound": "CCOc1ccc(NC(=S)NC(=O)Cc2ccccc2)cc1", "solubility kinetic": 1.8}, {"compound": "COc1ccc(NC(=O)COC(=O)C2=COCCO2)cc1OC", "solubility kinetic": "> 48.5"}, {"compound": "COc1cccc(Nc2ncnc3sccc23)c1", "solubility kinetic": "> 38.6"}, {"compound": "O=C(CSc1ccccc1)Nc1ccc2sccc2c1", "solubility kinetic": 0.7}, {"compound": "C=CCNC(=O)COC(=O)c1c2c(nc3ccccc13)CCC2", "solubility kinetic": 40.9}, {"compound": "Cc1ccc(-c2cc(C(=O)NCC(c3ccccc3)N(C)C)c3ccccc3n2)o1", "note": "(centres undefined)", "solubility kinetic": 31.1}, {"compound": "CCOC(=O)C1=C(C)N=C2SCCC(=O)N2[C@@H]1c1cccs1", "solubility kinetic": 39.1}, {"compound": "O=C(COC(=O)CCC1CCCC1)NCc1ccc(Cl)cc1", "solubility kinetic": "< 0.7"}, {"compound": "CN1CCN(C(=O)OC2c3nccnc3C(=O)N2c2ccc(Cl)cn2)CC1", "note": "(centres undefined)", "solubility kinetic": "> 58.3"}, {"compound": "Cl.O=C(O)Cc1cnc[nH]1", "solubility kinetic": "> 24.4"}, {"compound": "c1nc(Nc2ccc(N3CCOCC3)cc2)c2ccsc2n1", "solubility kinetic": "> 46.9"}, {"compound": "O=C(NC1CCCC(C(F)(F)F)C1)c1ccc([N+](=O)[O-])o1", "note": "(centres undefined)", "solubility kinetic": "> 45.9"}, {"compound": "CCc1cc2c(=O)n(-c3ccccc3)c(SCC(=O)O)nc2s1", "solubility kinetic": "> 52"}, {"compound": "Cc1ccc(S(=O)(=O)N2CCCC(C(=O)NC3CCCC3)C2)cc1", "note": "(centres undefined)", "solubility kinetic": 0.5}, {"compound": "Cc1cc(C)c(S(=O)(=O)N2CCN(C3CC(=O)N(c4ccccc4Cl)C3=O)CC2)c(C)c1", "note": "(centres undefined)", "solubility kinetic": 16.7}, {"compound": "CC(Sc1nc2c(c(=O)[nH]1)CCCC2)C(=O)Nc1ccccc1C#N", "note": "(centres undefined)", "solubility kinetic": 46.1}, {"compound": "N/C(=N\\OC(=O)c1ccc([N+](=O)[O-])cc1)c1ccccn1", "solubility kinetic": 3.2}, {"compound": "CN1CCC(N(C)S(=O)(=O)c2ccc(NC(=O)c3ccc(S(=O)(=O)N(C)C)cc3)cc2)CC1", "solubility kinetic": "> 74.2"}, {"compound": "Cc1ccc(NC(=O)C[n+]2cc(-c3ccccc3)n3c2CCC3)c(C)c1.[Cl-]", "solubility kinetic": 55.4}, {"compound": "NC(=O)C1=CN(Cc2ccc(Cl)cc2)CCC1C(F)(F)F", "note": "(centres undefined)", "solubility kinetic": "> 47.8"}, {"compound": "COc1ccccc1N(CC(=O)N1CCOCC1)S(C)(=O)=O", "solubility kinetic": "> 49.3"}, {"compound": "O=C(O)c1cc2[nH]c3c(c2cc1Cl)CCCC3", "solubility kinetic": "> 37.5"}, {"compound": "CCOc1ccc(S(=O)(=O)NCCCl)cc1", "solubility kinetic": "> 39.6"}, {"compound": "Br.CC(Cc1ccc(O)cc1)NCC(O)c1cc(O)cc(O)c1", "note": "(centres undefined)", "solubility kinetic": "> 57.6"}, {"compound": "Cc1ccc(NC(=O)N2CCC(NC(=O)c3ccco3)CC2)cc1", "solubility kinetic": "> 49.1"}, {"compound": "CN(c1ccccc1)c1nc(N)c([N+](=O)[O-])c(N2CCCCCC2)n1", "solubility kinetic": 2.6}, {"compound": "O=C1NC(c2cccc(Cl)c2)Oc2ccccc21", "note": "(centres undefined)", "solubility kinetic": 1.2}, {"compound": "COc1ccc(OC)c(NC(=O)Cn2cc(C=O)c3ccccc32)c1", "solubility kinetic": 2.5}, {"compound": "CCn1c(=O)c(C(=O)Nc2ncccc2O)c(O)c2ccccc21", "solubility kinetic": 0.9}, {"compound": "Cc1cc(C)c(S(=O)(=O)N2CCCC2)c(C)c1", "solubility kinetic": 30.4}, {"compound": "O=S(=O)(c1ccc(-c2ccon2)s1)N1CCCC1", "solubility kinetic": 11.5}, {"compound": "CCc1nccn1S(=O)(=O)c1ccccc1[N+](=O)[O-]", "solubility kinetic": "> 42.2"}, {"compound": "Cc1ccc(N2C(=O)CC(Sc3nccc(C)n3)C2=O)cc1", "note": "(centres undefined)", "solubility kinetic": "> 47"}, {"compound": "O=C(Nc1cccc(C(F)(F)F)c1)c1sc(Cl)nc1C(F)(F)F", "solubility kinetic": 36.3}, {"compound": "CCOC(=O)Cc1csc(NC(=O)Cc2ccc(Cl)cc2)n1", "solubility kinetic": 5.5}, {"compound": "Cc1[nH]c(=O)[nH]c(=O)c1Sc1ccccc1[N+](=O)[O-]", "solubility kinetic": 20.5}, {"compound": "CCCN1CCC(NC(=O)C2CC=CCC2C(=O)O)CC1", "note": "(centres undefined)", "solubility kinetic": "> 44.2"}, {"compound": "CC1CCC2C(C1)Nc1c(C(=O)O)cccc1C2(C)C", "note": "(centres undefined)", "solubility kinetic": "> 41"}, {"compound": "O=C(O)CC1(CC(=O)NCc2cccc(Cl)c2)CCCCC1", "solubility kinetic": "> 48.6"}, {"compound": "NC(=O)c1ccccc1OCC(=O)N1CCc2ccccc2C1", "solubility kinetic": "> 46.6"}, {"compound": "NC1C2CN3CCN(C2)CC1(c1ccccc1)C3", "note": "(centres undefined)", "solubility kinetic": "> 36.5"}, {"compound": "O=[N+]([O-])c1cccc2cn[nH]c12", "solubility kinetic": "> 24.5"}, {"compound": "COc1cc(SC)ccc1C(=O)Nc1ccccn1", "solubility kinetic": 9}, {"compound": "CCc1cc2c3c(c1)C(C)CC(C)(C)N3C(=O)/C2=C1\\SC(=O)NC1=O", "note": "(centres undefined)", "solubility kinetic": 1.1}, {"compound": "NC(N)=Nc1nc2cc([N+](=O)[O-])ccc2o1", "solubility kinetic": 6.4}, {"compound": "Cc1cccc(Nc2c([N+](=O)[O-])ccc3nonc23)c1C", "solubility kinetic": "< 0.1"}, {"compound": "O=c1cc(NC2CCCCC2)[nH]c(=O)[nH]1", "solubility kinetic": 13.1}, {"compound": "CCN(c1ccccc1)S(=O)(=O)c1ccc(N2CCN(c3ccc(OC)cc3)CC2)nc1", "solubility kinetic": 1.2}, {"compound": "O=C(NCc1cccc(C(F)(F)F)c1)c1ccc[nH]1", "solubility kinetic": "> 40.2"}, {"compound": "O=C1Nc2ccccc2/C1=C/c1ccccc1Cl", "solubility kinetic": 3.2}, {"compound": "COc1cccc(N2CCC(N3CCN(C)C(CCO)C3)CC2)c1", "note": "(centres undefined)", "solubility kinetic": 48.4}]}]}
